The target in assay [1] is T1, GKRP (Glucokinase Regulatory Protein) with human His-hepatic GK (Homo sapiens, UniProt Q14397).
T1 sequence (Q14397 1-625): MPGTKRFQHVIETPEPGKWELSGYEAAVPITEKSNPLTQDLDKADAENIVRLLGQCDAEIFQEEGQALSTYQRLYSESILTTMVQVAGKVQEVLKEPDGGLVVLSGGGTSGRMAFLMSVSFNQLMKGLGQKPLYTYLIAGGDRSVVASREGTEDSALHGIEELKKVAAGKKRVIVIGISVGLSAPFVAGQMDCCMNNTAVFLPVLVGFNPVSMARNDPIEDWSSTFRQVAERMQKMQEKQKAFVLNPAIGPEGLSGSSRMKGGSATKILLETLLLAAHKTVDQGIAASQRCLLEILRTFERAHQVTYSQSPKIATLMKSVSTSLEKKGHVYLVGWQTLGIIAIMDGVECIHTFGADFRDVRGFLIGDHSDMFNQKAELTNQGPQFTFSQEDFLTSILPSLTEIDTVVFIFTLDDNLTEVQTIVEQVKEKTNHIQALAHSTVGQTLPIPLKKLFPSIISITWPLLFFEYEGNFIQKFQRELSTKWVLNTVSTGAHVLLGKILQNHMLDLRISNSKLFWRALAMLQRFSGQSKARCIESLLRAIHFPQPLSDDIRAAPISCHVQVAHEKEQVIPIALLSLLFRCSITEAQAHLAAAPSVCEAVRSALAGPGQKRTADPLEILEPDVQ
As to the kind of experiment: biochemical. The note with it: 13C-glucose-6-phosphate formation; 280 nM GKRP (10×), 30 nM GK (5×); read-out: GK-GKRP EC50 (LC MS/MS-2). The essentials:
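Human His-tagged hepatic GK (30 nM in the 5× working stock) in 50 mM Tris pH 7.5, 4 mM MgCl2, 6% DMSO with DTT, BSA and Brij-35. Enzyme was added after a 30 min step and reacted 30 min at room temperature. The reaction was stopped with acetonitrile and 13C-glucose-6-phosphate formed from 13C-glucose was quantified by LC MS/MS.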

The target of assay [2] is T2, interaction between glucokinase (GK) and glucokinase regulatory protein (GKRP) (Homo sapiens, UniProt Q14397).
T2 sequence (Q14397 1-625): T1 sequence (Q14397 1-625)
As to the kind of experiment: biochemical. The class given is binding. The note with it: avi-tagged GKRP, GK-fluorescein, AlphaScreen beads; read-out: GK-GKRP IC50 (Binding). The essentials:
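Avi-tagged human GKRP preincubated with compound for 20 min at room temperature, then 6 nM GK-fluorescein (concentration of added solution) introduced and incubated 2 h in the dark. Buffer: 20 mM Tris pH 7.5, 0.05% BSA, 1 mM DTT, 1 μM sorbitol-6-phosphate. Plate read on a fluorescence reader.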
For orientation: Alpha assays give light when donor and acceptor beads are brought close together.

For eight compounds, EC50 and IC50 results are on record in patent publication US8431563B2 (priority 2010, dated 2013).

A word on the IC50: it is the midpoint of a concentration-inhibition curve.

For `CC(O)(c1ccc(N2CCN(S(=O)(=O)c3cccs3)C[C@@H]2CN(C2CCC2)S(C)(=O)=O)cc1)C(F)(F)F` (stereo partly drawn) [Example 212, N-cyclobutyl-N-(((2R)-4-(2-thiophenylsulfonyl)-1-(4-(2,2,2-trifluoro-1-hydroxy-1-methylethyl)phenyl)-2-piperazinyl)methyl) methanesulfonamide], the EC50 in assay [1] came to 92 nM. The half-maximal inhibitory concentration (IC50) in assay [2] was found to be 68 nM.

Turning to `CC1(C)C(=O)NCCN1C[C@H]1CN(S(=O)(=O)c2cccs2)CCN1c1ncc(C(O)(C(F)(F)F)C(F)(F)F)cn1` [Example 226, 3,3-dimethyl-4-(((2S)-4-(2-thiophenylsulfonyl)-1-(5-(2,2,2-trifluoro-1-hydroxy-1-(trifluoromethyl)ethyl)-2-pyrimidinyl)-2-piperazinyl)methyl)-2-piperazinone], the EC50 in assay [1] amounted to 14 nM. Also, the IC50 in assay [2] was 6 nM.

Consider `CC1(C)C(=O)NCCN1C[C@H]1CN(S(=O)(=O)c2ccc(N)s2)CCN1c1ncc(C(O)(C(F)(F)F)C(F)(F)F)cn1` [Example 227, (S)-4-((4-((5-aminothiophen-2-yl)sulfonyl)-1-(5-(1,1,1,3,3,3-hexafluoro-2-hydroxypropan-2-yl)pyrimidin-2-yl)piperazin-2-yl)methyl)-3,3-dimethylpiperazin-2-one], for which the EC50 in assay [1] is 21 nM. Also, in assay [2], the IC50 came to 2 nM.

Consider `CC(C)CN(C[C@H]1CN(S(=O)(=O)c2ccc(N)s2)CCN1c1ncc(C(O)(C(F)(F)F)C(F)(F)F)cn1)S(C)(=O)=O` [Example 229, N-(((2S)-4-((5-amino-2-thiophenyl)sulfonyl)-1-(5-(2,2,2-trifluoro-1-hydroxy-1-(trifluoromethyl)ethyl)-2-pyrimidinyl)-2-piperazinyl)methyl)-N-(2-methylpropyl)methanesulfonamide], for which the EC50 in assay [1] is 13 nM. Further, the IC50 in assay [2] came out at 1 nM.

With `CC(C)CN(C[C@H]1CN(S(=O)(=O)c2cccnc2N)CCN1c1ncc(C(O)(C(F)(F)F)C(F)(F)F)cn1)S(C)(=O)=O` [Example 230 (2-amino-3-pyridinyl), N-(((2S)-4-((2-amino-3-pyridinyl)sulfonyl)-1-(5-(2,2,2-trifluoro-1-hydroxy-1-(trifluoromethyl)ethyl)-2-pyrimidinyl)-2-piperazinyl)methyl)-N-(2-methylpropyl)methanesulfonamide], the EC50 in assay [1] worked out at 95 nM. Moreover, the IC50 in assay [2] amounted to 64 nM.

Consider `CC(C)CN(C[C@H]1CN(S(=O)(=O)c2ccc(N)nc2)CCN1c1ncc(C(O)(C(F)(F)F)C(F)(F)F)cn1)S(C)(=O)=O` [Example 230 (6-amino-3-pyridinyl), N-(((2S)-4-((6-amino-3-pyridinyl)sulfonyl)-1-(5-(2,2,2-trifluoro-1-hydroxy-1-(trifluoromethyl)ethyl)-2-pyrimidinyl)-2-piperazinyl)methyl)-N-(2-methylpropyl)methanesulfonamide], for which the EC50 in assay [1] was 11 nM. Also, the half-inhibitory concentration (IC50) in assay [2] was found to be 1 nM.

In the case of `CC(C)N(C[C@H]1CN(S(=O)(=O)c2ccc(N)s2)CCN1c1ncc(C(O)(C(F)(F)F)C(F)(F)F)cn1)S(C)(=O)=O` [Example 231, N-(((2R)-4-((5-amino-2-thiophenyl)sulfonyl)-1-(5-(2,2,2-trifluoro-1-hydroxy-1-(trifluoromethyl)ethyl)-2-pyrimidinyl)-2-piperazinyl)methyl)-N-(1-methylethyl)methanesulfonamide], the EC50 in assay [1] came to 20 nM. The half-maximal inhibitory concentration (IC50) in assay [2] stood at 7 nM.

Regarding `CC(C)N(C[C@H]1CN(S(=O)(=O)c2ccc(N)nc2)CCN1c1ncc(C(O)(C(F)(F)F)C(F)(F)F)cn1)S(C)(=O)=O` [Example 232, N-(((2R)-4-((6-amino-3-pyridinyl)sulfonyl)-1-(5-(2,2,2-trifluoro-1-hydroxy-1-(trifluoromethyl)ethyl)-2-pyrimidinyl)-2-piperazinyl)methyl)-N-(1-methylethyl)methanesulfonamide], the EC50 in assay [1] was 63 nM. For the same compound, the IC50 in assay [2] came to 35 nM.
